Source: PubChem BioAssay AID248 (DTP/NCI, 2004)
“And” between values parts separate entries of the source, which are not always exact repeats. Equal values may be shown once. Inconclusive results and toxic doses are left out. Rule as the data show it: active = T/C of 150% or more; inactive = T/C below 125%.

System: L1210 leukemia ip in BDF1 mice, survival T/C
Experiment: NCI In Vivo Anticancer Drug Screen. Data for tumor model L1210 Leukemia (intraperitoneal) in B6D2F1 (BDF1) mice
Conditions: endpoint: mean survival time, higher = longer survival
How it was run: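 Value reflects the ratio of survival in compound-treated mice to survival in vehicle-treated controls, with both groups carrying the same transplanted tumor.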

[1] = dose: 100.0 mg/kg/injection, schedule: Q01DX001 (ip), vehicle: saline
[2] = dose: 100.0 mg/kg/injection, schedule: Q01DX001 (ip), vehicle: Klucel (hydroxypropylcellulose) (HPC)
[3] = dose: 100.0 mg/kg/injection, schedule: Q04DX002 (ip), vehicle: Klucel (hydroxypropylcellulose) (HPC)
[4] = dose: 200.0 mg/kg/injection, schedule: Q04DX002 (ip), vehicle: Klucel (hydroxypropylcellulose) (HPC)
[5] = dose: 400.0 mg/kg/injection, schedule: Q04DX002 (ip), vehicle: Klucel (hydroxypropylcellulose) (HPC)
[6] = dose: 200.0 mg/kg/injection, schedule: Q01DX001 (ip), vehicle: Klucel (hydroxypropylcellulose) (HPC)
[7] = dose: 400.0 mg/kg/injection, schedule: Q01DX001 (ip), vehicle: Klucel (hydroxypropylcellulose) (HPC)
[8] = dose: 200.0 mg/kg/injection, schedule: Q01DX001 (ip), vehicle: saline

Measured: T/C

CC(C)=CCC/C(C)=C/COC(N)=O
inactive: dose: 100.0 mg/kg/injection, schedule: Q04DX002 (ip), vehicle: saline with Tween-80 100 % of control and 101 % of control | dose: 200.0 mg/kg/injection, schedule: Q04DX002 (ip), vehicle: saline with Tween-80 100 % of control and 99 % of control

Cc1c(NC(C)C)ccc(NC(C)C)c1C
inactive: dose: 100.0 mg/kg/injection, schedule: Q04DX002 (sc), vehicle: olive oil, sesame oil, peanut oil 100 % of control | dose: 200.0 mg/kg/injection, schedule: Q04DX002 (sc), vehicle: olive oil, sesame oil, peanut oil 100 % of control

C1CCCCCC(C2CCCCCCCCCCC2)CCCCC1
inactive: dose: 25.0 mg/kg/injection, schedule: Q01DX009 (ip), vehicle: acetone 94 % of control | dose: 25.0 mg/kg/injection, schedule: Q04DX003 (ip), vehicle: saline 94 % of control | dose: 50.0 mg/kg/injection, schedule: Q01DX009 (ip), vehicle: acetone 93 % of control | dose: 50.0 mg/kg/injection, schedule: Q04DX003 (ip), vehicle: saline 92 % of control | [1] 92 % of control | dose: 100.0 mg/kg/injection, schedule: Q01DX009 (ip), vehicle: acetone 98 % of control | dose: 100.0 mg/kg/injection, schedule: Q04DX003 (ip), vehicle: saline 92 % of control | dose: 150.0 mg/kg/injection, schedule: Q01DX009 (ip), vehicle: saline 90 % of control | dose: 225.0 mg/kg/injection, schedule: Q01DX009 (ip), vehicle: saline 88 % of control | dose: 335.0 mg/kg/injection, schedule: Q01DX009 (ip), vehicle: saline 93 % of control

O=C(C[P+](c1ccccc1)(c1ccccc1)c1ccccc1)c1ccccc1
inactive: dose: 75.0 mg/kg/injection, schedule: Q01DX001 (ip), vehicle: carboxymethylcellulose (CMC) 92 % of control | [2] 97 % of control | dose: 150.0 mg/kg/injection, schedule: Q01DX001 (ip), vehicle: carboxymethylcellulose (CMC) 97 % of control | dose: 300.0 mg/kg/injection, schedule: Q01DX001 (ip), vehicle: carboxymethylcellulose (CMC) 92 % of control

CN(N)c1cc(=O)[nH]c(N)n1
inactive: [3] 101 % of control | [4] 97 % of control | [5] 92 % of control

CCC(=O)OCNC(=O)NCc1ccco1
inactive: dose: 222.0 mg/kg/injection, schedule: Q01DX Z (ip), vehicle: methylcellulose (MC) 103 % of control | dose: 333.0 mg/kg/injection, schedule: Q01DX Z (ip), vehicle: methylcellulose (MC) 105 % of control | dose: 500.0 mg/kg/injection, schedule: Q01DX Z (ip), vehicle: methylcellulose (MC) 94 % of control

Cc1ccc(C(=O)NCc2ccc(CCc3nc(N)nc(N)c3-c3ccc(Cl)c(Cl)c3)cc2)cc1S(=O)(=O)F
inactive: dose: 100.0 mg/kg/injection, schedule: Q01DX001 (ip), vehicle: saline with Tween-80 100 % of control | dose: 200.0 mg/kg/injection, schedule: Q01DX001 (ip), vehicle: saline with Tween-80 110 % of control | dose: 400.0 mg/kg/injection, schedule: Q01DX001 (ip), vehicle: saline with Tween-80 114 % of control

CCN(CC)c1ccc(/C=C/C(=O)c2ccc(N(CC)CC)cc2)cc1
inactive: dose: 100.0 mg/kg/injection, schedule: Q01DX009 (ip), vehicle: Klucel (hydroxypropylcellulose) (HPC) 94 % of control | dose: 200.0 mg/kg/injection, schedule: Q01DX009 (ip), vehicle: Klucel (hydroxypropylcellulose) (HPC) 97 % of control | dose: 400.0 mg/kg/injection, schedule: Q01DX009 (ip), vehicle: Klucel (hydroxypropylcellulose) (HPC) 97 % of control

CC(=O)C1(O)CCC2C3CC=C4CC(O)CCC4(C)C3CCC21C (stereo not given)
inactive: dose: 100.0 mg/kg/injection, schedule: Q01DX001 (ip), vehicle: carboxymethylcellulose (CMC) 102 % of control | dose: 100.0 mg/kg/injection, schedule: Q01DX009 (ip), vehicle: carboxymethylcellulose (CMC) 87 % of control and 90 % of control | dose: 100.0 mg/kg/injection, schedule: Q04DX002 (ip), vehicle: carboxymethylcellulose (CMC) 98 % of control and 100 % of control | dose: 100.0 mg/kg/injection, schedule: Q04DX003 (ip), vehicle: carboxymethylcellulose (CMC) 97 % of control | dose: 200.0 mg/kg/injection, schedule: Q01DX001 (ip), vehicle: carboxymethylcellulose (CMC) 94 % of control | dose: 200.0 mg/kg/injection, schedule: Q01DX009 (ip), vehicle: carboxymethylcellulose (CMC) 96 % of control and 97 % of control | dose: 200.0 mg/kg/injection, schedule: Q04DX002 (ip), vehicle: carboxymethylcellulose (CMC) 100 % of control and 110 % of control | dose: 200.0 mg/kg/injection, schedule: Q04DX003 (ip), vehicle: carboxymethylcellulose (CMC) 98 % of control | dose: 400.0 mg/kg/injection, schedule: Q01DX001 (ip), vehicle: carboxymethylcellulose (CMC) 98 % of control | dose: 400.0 mg/kg/injection, schedule: Q01DX009 (ip), vehicle: carboxymethylcellulose (CMC) 93 % of control and 94 % of control | dose: 400.0 mg/kg/injection, schedule: Q04DX002 (ip), vehicle: carboxymethylcellulose (CMC) 97 % of control and 100 % of control | dose: 400.0 mg/kg/injection, schedule: Q04DX003 (ip), vehicle: carboxymethylcellulose (CMC) 88 % of control

C/C(=N\N=C(/C)c1c(C)c([N+](=O)[O-])c(C(C)(C)C)c([N+](=O)[O-])c1C)c1c(C)c([N+](=O)[O-])c(C(C)(C)C)c([N+](=O)[O-])c1C
inactive: [3] 97 % of control | [4] 94 % of control | [5] 97 % of control

O=c1[nH]n(-c2ccccc2)c(=O)c2ccccc12
inactive: [2] 110 % of control and 102 % of control | [6] 100 % of control and 94 % of control | [7] 100 % of control and 104 % of control

CCN(C(=O)c1cccc(C(=O)N(CC)c2ccccc2C)c1)c1ccccc1C
inactive: dose: 50.0 mg/kg/injection, schedule: Q01DX009 (ip), vehicle: saline with Tween-80 97 % of control | dose: 100.0 mg/kg/injection, schedule: Q01DX009 (ip), vehicle: saline with Tween-80 90 % of control | dose: 100.0 mg/kg/injection, schedule: Q04DX003 (ip), vehicle: saline with Tween-80 99 % of control | dose: 200.0 mg/kg/injection, schedule: Q01DX009 (ip), vehicle: saline with Tween-80 89 % of control | dose: 200.0 mg/kg/injection, schedule: Q04DX003 (ip), vehicle: saline with Tween-80 90 % of control

Cc1ccc(C(C)C)c(OCCN2CC=CC2)c1
inactive: [1] 98 % of control | [8] 94 % of control

CC(C)(C)C1=NN=C(C(C)(C)C)CS(=O)C1
inactive: [3] 90 % of control | [4] 97 % of control | [5] 101 % of control

Cc1ccc(S(=O)(=O)NCCC(Cl)(Cl)Cl)cc1
inactive: dose: 100.0 mg/kg/injection, schedule: Q04DX003 (ip), vehicle: Klucel (hydroxypropylcellulose) (HPC) 104 % of control | dose: 200.0 mg/kg/injection, schedule: Q04DX003 (ip), vehicle: Klucel (hydroxypropylcellulose) (HPC) 101 % of control | dose: 400.0 mg/kg/injection, schedule: Q04DX003 (ip), vehicle: Klucel (hydroxypropylcellulose) (HPC) 98 % of control

O=C(c1ccc(Cl)cc1)C(NCCO)c1ccc(Cl)cc1 (stereo not given)
inactive: dose: 50.0 mg/kg/injection, schedule: Q01DX001 (ip), vehicle: saline 97 % of control | [1] 101 % of control | [8] 95 % of control | dose: 400.0 mg/kg/injection, schedule: Q01DX001 (ip), vehicle: saline 95 % of control

CC(C)N1C(=O)N(C(C)C)C2(CCN(CC3COc4ccccc4O3)CC2)C1=O (stereo not given)
inactive: [2] 100 % of control | [6] 88 % of control | [7] 94 % of control

CC(=O)OC1CC(OC2C(O)CC(OC3C(O)CC(OC4CCC5(C)C(CCC6C5CC(O)C5(C)C(C7=CC(=O)OC7)CCC65O)C4)OC3C)OC2C)OC(C)C1O (stereo not given) (tested in a mixture with another compound)
inactive: dose: 100.0 mg/kg/injection, schedule: Q01DX001 (sc), vehicle: steriod suspending solution 97 % of control | dose: 200.0 mg/kg/injection, schedule: Q01DX001 (sc), vehicle: steriod suspending solution 101 % of control
